PubChem BioAssay AID330 (DTP/NCI, 2004)
Values joined by “and” are separate entries in the source; they are usually repeats but may differ in a detail not shown here. Equal entries are not always repeated. Toxic doses and inconclusive results are not listed. Rule for the calls: active = survival T/C of 150% or more; inactive = T/C below 125% in these data. Square brackets hold non-standard residues; d marks the D form. Peptide text beside a SMILES is read from it. ξ: configuration not given here. ξP = O=C(O)C1CCCN1

System: P388 leukemia ip, CD2F1 mice, survival T/C
Assay: NCI In Vivo Anticancer Drug Screen. Data for tumor model P388 Leukemia (intraperitoneal) in CD2F1 (CDF1) mice
Settings: endpoint: median survival time, higher = longer survival
Procedure, shortened: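 Mice carrying the transplanted tumor received test compound or vehicle. Survival was recorded in each group, and the value is the treated-group measurement divided by that of the vehicle-treated control group.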

[1] = dose: 50.0 mg/kg/injection, schedule: Q01DX005 (ip), vehicle: saline with Tween-80
[2] = dose: 100.0 mg/kg/injection, schedule: Q01DX005 (ip), vehicle: saline with Tween-80
[3] = dose: 200.0 mg/kg/injection, schedule: Q01DX005 (ip), vehicle: saline with Tween-80
[4] = dose: 50.0 mg/kg/injection, schedule: Q01DX009 (ip), vehicle: saline
[5] = dose: 60.0 mg/kg/injection, schedule: Q01DX005 (ip), vehicle: saline with Tween-80
[6] = dose: 120.0 mg/kg/injection, schedule: Q01DX005 (ip), vehicle: saline with Tween-80
[7] = dose: 240.0 mg/kg/injection, schedule: Q01DX005 (ip), vehicle: saline with Tween-80
[8] = dose: 100.0 mg/kg/injection, schedule: Q01DX009 (ip), vehicle: saline with Tween-80
[9] = dose: 50.0 mg/kg/injection, schedule: Q01DX009 (ip), vehicle: saline with Tween-80
[10] = dose: 100.0 mg/kg/injection, schedule: Q01DX001 (ip), vehicle: saline with Tween-80
[11] = dose: 200.0 mg/kg/injection, schedule: Q01DX001 (ip), vehicle: saline with Tween-80

Measured: T/C

O=C(NCCCl)Oc1c(Cl)cc(Cl)cc1Cl
inactive: dose: 12.5 mg/kg/injection, schedule: Q01DX005 (ip), vehicle: Klucel (hydroxypropylcellulose) (HPC) 106 % of control | dose: 25.0 mg/kg/injection, schedule: Q01DX005 (ip), vehicle: Klucel (hydroxypropylcellulose) (HPC) 104 % of control

CCN(CC)CCN1C=CC(=C2C(=O)c3ccccc3C2=O)C=C1
inactive: dose: 60.0 mg/kg/injection, schedule: Q01DX005 (ip), vehicle: Klucel (hydroxypropylcellulose) (HPC) 99 % of control | dose: 120.0 mg/kg/injection, schedule: Q01DX005 (ip), vehicle: Klucel (hydroxypropylcellulose) (HPC) 101 % of control | dose: 240.0 mg/kg/injection, schedule: Q01DX005 (ip), vehicle: Klucel (hydroxypropylcellulose) (HPC) 99 % of control

COc1cc(C(N)CCc2ccc3c(c2)OCO3)cc(OC)c1OC (configuration not stated)
inactive: dose: 50.0 mg/kg/injection, schedule: Q01DX005 (ip), vehicle: Klucel (hydroxypropylcellulose) (HPC) 110 % of control | dose: 100.0 mg/kg/injection, schedule: Q01DX005 (ip), vehicle: Klucel (hydroxypropylcellulose) (HPC) 98 % of control

CC(=O)C1C(=O)C(=O)N(c2ccc(C)c(C)c2)C1=O (configuration not stated)
inactive: [1] 101 % of control | [2] 97 % of control | [3] 100 % of control

CCN(CC)CCOC(=O)c1ccc(N)cc1
inactive: [4] 98 % of control | dose: 100.0 mg/kg/injection, schedule: Q01DX009 (ip), vehicle: saline 100 % of control

NCC(=O)N1CCCC1C(=O)NCC(=O)NCC(=O)O (configuration not stated) (H-G[ξP]GG-OH)
inactive: dose: 50.0 mg/kg/injection, schedule: Q01DX005 (ip), vehicle: saline 101 % of control | dose: 100.0 mg/kg/injection, schedule: Q01DX005 (ip), vehicle: saline 107 % of control | dose: 100.0 mg/kg/injection, schedule: Q01DX005 (ip), vehicle: water 105 % of control | dose: 200.0 mg/kg/injection, schedule: Q01DX005 (ip), vehicle: saline 99 % of control | dose: 200.0 mg/kg/injection, schedule: Q01DX005 (ip), vehicle: water 107 % of control | dose: 400.0 mg/kg/injection, schedule: Q01DX005 (ip), vehicle: water 110 % of control

COc1cccc(C(c2cc3c(cc2O)OCO3)N2CCOCC2)c1O (configuration not stated)
inactive: [5] 114 % of control (2×) and 116 % of control | [6] 108 % of control and 116 % of control and 122 % of control | [7] 109 % of control and 112 % of control | dose: 480.0 mg/kg/injection, schedule: Q01DX005 (ip), vehicle: saline with Tween-80 118 % of control

CCN(CC)CCNc1ccc([N+](=O)[O-])c2sc3ccccc3c(=O)c12
inactive: dose: 6.25 mg/kg/injection, schedule: Q01DX009 (ip), vehicle: saline 104 % of control | dose: 12.5 mg/kg/injection, schedule: Q01DX009 (ip), vehicle: saline 112 % of control | dose: 75.0 mg/kg/injection, schedule: Q01DX009 (ip), vehicle: saline 115 % of control
active: dose: 33.0 mg/kg/injection, schedule: Q01DX009 (ip), vehicle: saline 180 % of control | [4] 220 % of control | [8] 158 % of control

O=S(=O)(Nc1ncccn1)c1ccc(N=Cc2c3ccccc3nc3cc(Cl)ccc23)cc1
inactive: [1] 91 % of control | [2] 90 % of control | [3] 89 % of control

CC(C)CCC1=CC(=O)C(CCC(C)C)=CC1=O
inactive: dose: 3.12 mg/kg/injection, schedule: Q01DX009 (ip), vehicle: saline with Tween-80 104 % of control | dose: 6.25 mg/kg/injection, schedule: Q01DX009 (ip), vehicle: saline with Tween-80 104 % of control | dose: 12.5 mg/kg/injection, schedule: Q01DX009 (ip), vehicle: saline with Tween-80 106 % of control | dose: 25.0 mg/kg/injection, schedule: Q01DX009 (ip), vehicle: saline with Tween-80 101 % of control

O=S(=O)(/C=C/c1ccccc1)OCCCl
inactive: [9] 103 % of control | [8] 107 % of control | dose: 200.0 mg/kg/injection, schedule: Q01DX009 (ip), vehicle: saline with Tween-80 107 % of control

c1ccc(C2=NC3CCCC[C@H]3O2)cc1 (some centres not stated)
inactive: dose: 30.0 mg/kg/injection, schedule: Q01DX005 (ip), vehicle: saline with Tween-80 108 % of control | [5] 101 % of control and 96 % of control | [6] 105 % of control | [7] 100 % of control

CCB1OC2OC3C4OB(CC)OC4OC3C2O1 (configuration not stated)
inactive: [1] 103 % of control | [2] 103 % of control | [3] 103 % of control

CSc1nc(NC2OC(COC(C)=O)C(OC(C)=O)C(OC(C)=O)C2OC(C)=O)c(N=CC=Nc2c(NC3OC(COC(C)=O)C(OC(C)=O)C(OC(C)=O)C3OC(C)=O)nc(SC)n(C)c2=O)c(=O)n1C (configuration not stated)
inactive: [5] 89 % of control | [6] 91 % of control

CC(C)NC(=O)OCc1c(COC(=O)NC(C)C)c(S(=O)(=O)c2ccccc2)n2c1CCC2
inactive: dose: 25.0 mg/kg/injection, schedule: Q01DX005 (ip), vehicle: saline with Tween-80 89 % of control | [1] 86 % of control | [2] 90 % of control | [3] 93 % of control

O=C(Nc1ccc(Cl)c(Cl)c1)Oc1cccnc1
inactive: [9] 100 % of control | [8] 105 % of control

CC(=O)OC1COC(Nc2cc(=O)n(C)c(=O)[nH]2)C(OC(C)=O)C1OC(C)=O (configuration not stated)
inactive: [10] 101 % of control | [11] 100 % of control | dose: 400.0 mg/kg/injection, schedule: Q01DX001 (ip), vehicle: saline with Tween-80 95 % of control

O=C(N/N=c1/sc2ccccc2n1Cc1ccccc1)c1ccncc1
inactive: dose: 6.25 mg/kg/injection, schedule: Q01DX009 (ip), vehicle: Klucel (hydroxypropylcellulose) (HPC) 106 % of control | dose: 12.5 mg/kg/injection, schedule: Q01DX009 (ip), vehicle: Klucel (hydroxypropylcellulose) (HPC) 100 % of control | dose: 25.0 mg/kg/injection, schedule: Q01DX009 (ip), vehicle: Klucel (hydroxypropylcellulose) (HPC) 89 % of control

CC(NNC(=S)N(C)C1CCCCC1)c1nccc2ccccc12 (configuration not stated)
inactive: dose: 30.12 mg/kg/injection, schedule: Q01DX001 (ip), vehicle: Klucel (hydroxypropylcellulose) (HPC) 101 % of control and 102 % of control | dose: 60.25 mg/kg/injection, schedule: Q01DX001 (ip), vehicle: Klucel (hydroxypropylcellulose) (HPC) 103 % of control and 107 % of control and 108 % of control | dose: 120.5 mg/kg/injection, schedule: Q01DX001 (ip), vehicle: Klucel (hydroxypropylcellulose) (HPC) 114 % of control and 115 % of control | dose: 241.0 mg/kg/injection, schedule: Q01DX001 (ip), vehicle: Klucel (hydroxypropylcellulose) (HPC) 108 % of control and 113 % of control

O=C([O-])C(=O)[N-]CCC[N-]C(=O)C(=O)[N-]CCC[N-]C(=O)C(=O)[O-].[Cu+2].[Cu+2].[Na+]
inactive: dose: 3.75 mg/kg/injection, schedule: Q01DX005 (ip), vehicle: saline with Tween-80 103 % of control | dose: 7.5 mg/kg/injection, schedule: Q01DX005 (ip), vehicle: saline with Tween-80 104 % of control | dose: 15.0 mg/kg/injection, schedule: Q01DX005 (ip), vehicle: saline with Tween-80 101 % of control

O=S(=O)(O)O.[W]
inactive: dose: 0.38 mg/kg/injection, schedule: Q01DX009 (ip), vehicle: saline with Tween-80 91 % of control | dose: 0.38 mg/kg/injection, schedule: Q01DX009 (ip), vehicle: saline 99 % of control | dose: 0.75 mg/kg/injection, schedule: Q01DX009 (ip), vehicle: saline 89 % of control and 96 % of control | dose: 1.5 mg/kg/injection, schedule: Q01DX009 (ip), vehicle: saline with Tween-80 100 % of control | dose: 1.5 mg/kg/injection, schedule: Q01DX009 (ip), vehicle: saline 98 % of control and 86 % of control | dose: 3.0 mg/kg/injection, schedule: Q01DX009 (ip), vehicle: saline with Tween-80 87 % of control | dose: 3.0 mg/kg/injection, schedule: Q01DX009 (ip), vehicle: saline 89 % of control and 94 % of control

CN1C(=O)C2CCCN2C(=O)C1(C)NC(=O)OCc1ccccc1 (configuration not stated)
inactive: dose: 3.12 mg/kg/injection, schedule: Q04DX003 (ip), vehicle: saline 107 % of control and 98 % of control | dose: 6.25 mg/kg/injection, schedule: Q04DX003 (ip), vehicle: saline 105 % of control and 98 % of control | dose: 12.5 mg/kg/injection, schedule: Q04DX003 (ip), vehicle: saline 102 % of control and 105 % of control | dose: 25.0 mg/kg/injection, schedule: Q04DX003 (ip), vehicle: saline 99 % of control and 107 % of control | dose: 25.0 mg/kg/injection, schedule: Q04DX003 (ip), vehicle: suspension in saline 100 % of control

NC(=S)N/N=C\C(CC(O)CO)=N\NC(N)=S (configuration not stated)
inactive: [1] 101 % of control | [2] 101 % of control | [3] 93 % of control

CCOC(=O)C1=C(Nc2cccc3c(NC4=C(C(=O)OCC)C(=O)CO4)cccc23)OCC1=O
inactive: [5] 109 % of control | [6] 99 % of control | [7] 98 % of control

CC1(C)C(N2CCOCC2)C(c2ccccc2)S1(=O)=O (configuration not stated)
inactive: dose: 50.0 mg/kg/injection, schedule: Q01DX001 (ip), vehicle: saline with Tween-80 91 % of control | [10] 100 % of control | [11] 95 % of control
